Reference: PubChem BioAssay AID2060486 (Molecular Pharmacology Branch, DTP, NCI, 2025)

Test system: IGROV1 complex spheroids (HUVEC, MSC), viability % test/control
Assay: Anticancer human tumor IGROV1 cell line growth inhibition [GQUAD];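 further: spheroids exposed to compounds for 7 days before readout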
Conditions: for IC50: curve of first compound; for viability, T/C: stronger effect = lower value
Description: DNA G-quadruplex Stabilizer Agents in Combinations in Complex Spheroids
A high-throughput screen of multi-cell type tumor spheroids was designed to identify active combinations of DNA G-quadruplex stabilizer agents and targeted small molecules. Complex spheroids include a stromal component modeled by human endothelial cells (HUVEC) and fibroblasts modeled by human mesenchymal stem cells (MSCs). The concentration ranges selected for each drug and investigational agent were based upon clinically achievable concentrations if the clinical Cmax of the agent was known.
Compounds. The drugs and investigational agents: pidnarulex (CX-5461; NSC782164), APTO-253 (NSC789042), BRACO-19 (NSC847499), peposertib (NSC802822), ceralasertib (NSC780249), elimusertib (NSC800525), camonsertib (NSC841442), AZD-1390 (NSC803789), olaparib (NSC753686), talazoparib (NSC767125), ART-558 (NSC835418), sotorasib (NSC818433), MRTX-1133 (NSC836407), SN-38 (NSC673596), topotecan (NSC609699), etoposide (NSC141540), doxorubicin (NSC123127), gemcitabine (NSC613327), 5-fluorouracil (NSC19893), paclitaxel (NSC125973), vemurafenib (NSC761431), panobinostat (NSC761190), R-306465 (JNJ-16241199; NSC773264), adavosertib (NSC754352), TP-3654 (NSC805149), carboplatin (NSC241240), KSQ-4279 (NSC840948), and staurosporine (NSC755774) were obtained from the National Cancer Institute (NCI) Developmental Therapeutics Program Chemical Repository (34). The FDA-approved anticancer drug set is available from the NCI Developmental Therapeutics Program. […] The stock solutions were prepared in dimethyl sulfoxide (DMSO, Sigma-Aldrich, St. Louis, MO, cat. D2650) at 800-fold the tested concentration and stored at -70 degrees C prior to their use. All drugs and investigational agents were tested over a range starting from a high concentration at or near the clinical Cmax and decreasing in half-log increments. If the clinical Cmax for an agent had not been determined, the highest concentration tested was 10 microM.
2.3 Cell Culture. All cells were maintained in an incubator at 37 degrees C and 5% CO2 with 95% humidity. The PDC lines were cultured according to standard operating procedures established by the NCI PDMR. All PDCs were thawed and cultured in Matrigel-coated flasks prepared with a working solution of 1X Ham's F-12 nutrient mix, without supplementation (Invitrogen, cat. 11765054), 100 U/mL penicillin-streptomycin (Invitrogen, cat. 15140122), and 2.5% Matrigel (Corning Inc., cat. 354248) for the first three passages. The 857933-349-R-J2-PDC line was cultured in 6C/Colon 1B media, which includes advanced DMEM/F-12 (Thermo Fisher Scientific, cat. 12634028), 10 mM HEPES (Thermo Fisher Scientific, cat. 15630080), 1X GlutaMAX supplement (Thermo Fisher Scientific, cat. 35050061), 0.1 mg/mL primocin (InvivoGen, cat. ant-pm-2), 10% defined fetal bovine serum, heat inactivated (HyClone Laboratories Inc., cat. SH30070.03HI), 50% L-WRN conditioned media (ATCC, cat. CRL-3276), 1.25 mM N-Acetyl-L-cysteine (Sigma-Aldrich, cat. A9165), 10 mM nicotinamide (Sigma-Aldrich, cat. N0636), 1X B-27 supplement (Thermo Fisher Scientific, cat. 17504044), 1X N-2 supplement (Thermo Fisher Scientific, cat. 17502048), 10 microM Y-27632 dihydrochloride (Tocris Bioscience, cat. 1254), and 50 ng/mL human EGF recombinant protein (Thermo Fisher Scientific, cat. PHG0311). The 485176-168-R4-J1-PDC line was cultured in Panc media, which includes all 6C/Colon 1B media components plus 100 ng/mL human FGF-10 (Thermo Fisher Scientific, cat. 100-26), 500 nM SB-431542 (Selleckchem, cat. S1067), and gastrin (Tocris, cat. 3006).
[…]

[1] = second compound 0.0316 µM, first compound 0.0316 µM
[2] = second compound 0.0316 µM, first compound 0.316 µM
[3] = second compound 0.1 µM, first compound 0.0316 µM
[4] = second compound 0.1 µM, first compound 0.316 µM
[5] = second compound 0.316 µM, first compound 0.0316 µM
[6] = second compound 0.316 µM, first compound 0.316 µM
[7] = second compound 1 µM, first compound 0.0316 µM
[8] = second compound 1 µM, first compound 0.316 µM
[9] = second compound 3.16 µM, first compound 0.0316 µM
[10] = second compound 3.16 µM, first compound 0.316 µM
[11] = second compound 10 µM, first compound 0.0316 µM
[12] = second compound 10 µM, first compound 0.316 µM

Q: How did the IC50 (second compound 0.0316 µM) turn out when CC1COCCN1c1cc(-c2ccnn2C)c2ccnc(-c3ccn[nH]3)c2n1 (centres undefined) + CN(C)c1ccc(Nc2c3ccc(NC(=O)CCN4CCCC4)cc3nc3cc(NC(=O)CCN4CCCC4)ccc23)cc1 was run?
A: 50.7 nM

Q: And the IC50 (second compound 0.1 µM)?
A: 49.6 nM

Q: What about the IC50 (second compound 0.316 µM) of the same compound?
A: 37.1 nM

Q: And the IC50 (second compound 1 µM)?
A: 43 nM

Q: What about the IC50 (second compound 3.16 µM) of the same compound?
A: < 31.6 nM

Q: What about the IC50 (second compound 10 µM) of the same compound?
A: < 31.6 nM

Q: And the viability, T/C [1]?
A: 66.2%

Q: What about the viability, T/C (second compound 0.0316 µM, first compound 0.1 µM) of the same compound?
A: 26.3%

Q: What about the viability, T/C [2] of the same compound?
A: 12.3%

Q: And the viability, T/C (second compound 0.0316 µM, first compound 1 µM)?
A: 7.64%

Q: And the viability, T/C (second compound 0.0316 µM, first compound 3.16 µM)?
A: 4.82%

Q: And the viability, T/C (second compound 0.0316 µM, first compound 10 µM)?
A: 3.77%

Q: And the viability, T/C [3]?
A: 66.3%

Q: And the viability, T/C (second compound 0.1 µM, first compound 0.1 µM)?
A: 24.2%

Q: And the viability, T/C [4]?
A: 11.8%

Q: What about the viability, T/C (second compound 0.1 µM, first compound 1 µM) of the same compound?
A: 7.54%

Q: And the viability, T/C (second compound 0.1 µM, first compound 3.16 µM)?
A: 5.16%

Q: What about the viability, T/C (second compound 0.1 µM, first compound 10 µM) of the same compound?
A: 3.61%

Q: What about the viability, T/C [5] of the same compound?
A: 54.9%

Q: And the viability, T/C (second compound 0.316 µM, first compound 0.1 µM)?
A: 21.5%

Q: And the viability, T/C [6]?
A: 9.35%

Q: What about the viability, T/C (second compound 0.316 µM, first compound 1 µM) of the same compound?
A: 6.62%

Q: What about the viability, T/C (second compound 0.316 µM, first compound 3.16 µM) of the same compound?
A: 5.67%

Q: What about the viability, T/C (second compound 0.316 µM, first compound 10 µM) of the same compound?
A: 3.51%

Q: And the viability, T/C [7]?
A: 57.8%

Q: And the viability, T/C (second compound 1 µM, first compound 0.1 µM)?
A: 28.5%

Q: What about the viability, T/C [8] of the same compound?
A: 11.7%

Q: What about the viability, T/C (second compound 1 µM, first compound 1 µM) of the same compound?
A: 7.28%

Q: And the viability, T/C (second compound 1 µM, first compound 3.16 µM)?
A: 5.79%

Q: And the viability, T/C (second compound 1 µM, first compound 10 µM)?
A: 3.85%

Q: What about the viability, T/C [9] of the same compound?
A: 44%

Q: And the viability, T/C (second compound 3.16 µM, first compound 0.1 µM)?
A: 18.2%

Q: What about the viability, T/C [10] of the same compound?
A: 11.2%

Q: What about the viability, T/C (second compound 3.16 µM, first compound 1 µM) of the same compound?
A: 7.75%

Q: What about the viability, T/C (second compound 3.16 µM, first compound 3.16 µM) of the same compound?
A: 4.98%

Q: What about the viability, T/C (second compound 3.16 µM, first compound 10 µM) of the same compound?
A: 3.18%

Q: And the viability, T/C [11]?
A: 20.6%

Q: And the viability, T/C (second compound 10 µM, first compound 0.1 µM)?
A: 10.5%

Q: What about the viability, T/C [12] of the same compound?
A: 9.22%

Q: What about the viability, T/C (second compound 10 µM, first compound 1 µM) of the same compound?
A: 5.87%

Q: What about the viability, T/C (second compound 10 µM, first compound 3.16 µM) of the same compound?
A: 5.04%

Q: What about the viability, T/C (second compound 10 µM, first compound 10 µM) of the same compound?
A: 3.72%

Q: For CCc1c2c(nc3ccc(O)cc13)-c1cc3c(c(=O)n1C2)COC(=O)[C@]3(O)CC + CN(C)c1ccc(Nc2c3ccc(NC(=O)CCN4CCCC4)cc3nc3cc(NC(=O)CCN4CCCC4)ccc23)cc1, which IC50 (second compound 0.0316 µM) is on record?
A: 1.22 nM

Q: What about the IC50 (second compound 0.1 µM) of the same compound?
A: 1.05 nM

Q: What about the IC50 (second compound 0.316 µM) of the same compound?
A: < 0.999 nM

Q: What about the IC50 (second compound 1 µM) of the same compound?
A: < 0.999 nM

Q: And the IC50 (second compound 3.16 µM)?
A: < 0.999 nM

Q: And the IC50 (second compound 10 µM)?
A: < 0.999 nM

Q: What about the viability, T/C (second compound 0.0316 µM, first compound 0.000999 µM) of the same compound?
A: 57.5%

Q: What about the viability, T/C (second compound 0.0316 µM, first compound 0.00316 µM) of the same compound?
A: 15.8%

Q: And the viability, T/C (second compound 0.0316 µM, first compound 0.00999 µM)?
A: 11.4%

Q: What about the viability, T/C [1] of the same compound?
A: 7.01%

Q: And the viability, T/C (second compound 0.0316 µM, first compound 0.0999 µM)?
A: 5.52%

Q: What about the viability, T/C [2] of the same compound?
A: 1.54%

Q: What about the viability, T/C (second compound 0.1 µM, first compound 0.000999 µM) of the same compound?
A: 51.9%

Q: And the viability, T/C (second compound 0.1 µM, first compound 0.00316 µM)?
A: 15.3%

Q: What about the viability, T/C (second compound 0.1 µM, first compound 0.00999 µM) of the same compound?
A: 11.3%

Q: What about the viability, T/C [3] of the same compound?
A: 8.79%

Q: And the viability, T/C (second compound 0.1 µM, first compound 0.0999 µM)?
A: 5.38%

Q: And the viability, T/C [4]?
A: 1.47%

Q: What about the viability, T/C (second compound 0.316 µM, first compound 0.000999 µM) of the same compound?
A: 49.7%

Q: And the viability, T/C (second compound 0.316 µM, first compound 0.00316 µM)?
A: 16.7%

Q: What about the viability, T/C (second compound 0.316 µM, first compound 0.00999 µM) of the same compound?
A: 9.1%

Q: What about the viability, T/C [5] of the same compound?
A: 8.69%

Q: What about the viability, T/C (second compound 0.316 µM, first compound 0.0999 µM) of the same compound?
A: 3.87%

Q: What about the viability, T/C [6] of the same compound?
A: 1.5%

Q: And the viability, T/C (second compound 1 µM, first compound 0.000999 µM)?
A: 49.5%

Q: What about the viability, T/C (second compound 1 µM, first compound 0.00316 µM) of the same compound?
A: 13.7%

Q: And the viability, T/C (second compound 1 µM, first compound 0.00999 µM)?
A: 9.93%

Q: What about the viability, T/C [7] of the same compound?
A: 8.16%

Q: What about the viability, T/C (second compound 1 µM, first compound 0.0999 µM) of the same compound?
A: 5.08%

Q: What about the viability, T/C [8] of the same compound?
A: 2.04%

Q: And the viability, T/C (second compound 3.16 µM, first compound 0.000999 µM)?
A: 42.3%

Q: What about the viability, T/C (second compound 3.16 µM, first compound 0.00316 µM) of the same compound?
A: 11.4%

Q: And the viability, T/C (second compound 3.16 µM, first compound 0.00999 µM)?
A: 8.41%

Q: What about the viability, T/C [9] of the same compound?
A: 8.25%

Q: What about the viability, T/C (second compound 3.16 µM, first compound 0.0999 µM) of the same compound?
A: 5.52%

Q: What about the viability, T/C [10] of the same compound?
A: 1.58%

Q: And the viability, T/C (second compound 10 µM, first compound 0.000999 µM)?
A: 20.3%

Q: What about the viability, T/C (second compound 10 µM, first compound 0.00316 µM) of the same compound?
A: 10.7%

Q: What about the viability, T/C (second compound 10 µM, first compound 0.00999 µM) of the same compound?
A: 9.09%

Q: What about the viability, T/C [11] of the same compound?
A: 5.5%

Q: And the viability, T/C (second compound 10 µM, first compound 0.0999 µM)?
A: 2.71%

Q: What about the viability, T/C [12] of the same compound?
A: 2.02%
